Where two headings read alike, the source gives them in different places.
Tests used:
[1] = test system: isolated rat liver mitochondria; test: Mitochondrial oxygen consumption (glutamate/malate or succinate driven, state 4 and state 3); format: biochemical; settings: for Glutamate/malate driven respiration State 3 / Glutamate/malate driven respiration State 4 / Succinate-driven respiration State 3 / Succinate-driven respiration State 4: oxygen consumption, DMSO-treated = 1; for State 3 respiration driven by succinate at 10XCmax: key: 0 indicates that the drug had no effects (negative); for State 3 respiration driven by succinate at 1XCmax: key: 0 indicates that the drug had no effects (negative)
In short: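 Oxygen uptake on glutamate/malate or on succinate defined state 4; ADP added 3 min later gave state 3. Mitochondria isolated from rat liver by differential centrifugation, adjusted to 1 mg/ml and pretreated 5 min with inhibitor (0.1% DMSO final). Values relative to DMSO control, set to 1.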

[2] = target: T1, RCC II (Rattus norvegicus, UniProt P21913+Q641Z9+Q6PCT8+Q920L2); test: RCC II activity in submitochondrial particles; format: biochemical; parameters: key: activity relative to DMSO-treated controls (control set as 1 = 100%)
T1 construct: Submitochondrial particles were prepared by subjecting the intact mitochondria to three successive freeze–thaw cycles; from tissue; host or cells: rat liver mitochondria, used as submitochondrial particles
T1 sequence (Q920L2 35-656): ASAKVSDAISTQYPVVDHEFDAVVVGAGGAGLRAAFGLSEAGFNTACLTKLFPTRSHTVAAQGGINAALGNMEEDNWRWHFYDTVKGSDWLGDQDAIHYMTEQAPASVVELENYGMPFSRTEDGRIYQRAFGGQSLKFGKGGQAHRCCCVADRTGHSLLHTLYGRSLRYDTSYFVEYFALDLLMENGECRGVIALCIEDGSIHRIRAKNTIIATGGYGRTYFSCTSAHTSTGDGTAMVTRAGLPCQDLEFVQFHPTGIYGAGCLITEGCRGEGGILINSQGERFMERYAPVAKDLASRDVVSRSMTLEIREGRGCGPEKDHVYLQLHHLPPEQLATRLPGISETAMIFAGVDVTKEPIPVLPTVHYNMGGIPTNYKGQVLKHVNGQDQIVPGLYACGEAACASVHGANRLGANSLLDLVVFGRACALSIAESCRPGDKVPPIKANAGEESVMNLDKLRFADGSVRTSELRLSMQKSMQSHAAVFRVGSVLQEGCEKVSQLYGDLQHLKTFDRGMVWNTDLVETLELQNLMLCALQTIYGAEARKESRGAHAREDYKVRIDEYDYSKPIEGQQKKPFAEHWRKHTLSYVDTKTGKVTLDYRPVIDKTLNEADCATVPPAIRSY
T1 sequence (P21913 31-282): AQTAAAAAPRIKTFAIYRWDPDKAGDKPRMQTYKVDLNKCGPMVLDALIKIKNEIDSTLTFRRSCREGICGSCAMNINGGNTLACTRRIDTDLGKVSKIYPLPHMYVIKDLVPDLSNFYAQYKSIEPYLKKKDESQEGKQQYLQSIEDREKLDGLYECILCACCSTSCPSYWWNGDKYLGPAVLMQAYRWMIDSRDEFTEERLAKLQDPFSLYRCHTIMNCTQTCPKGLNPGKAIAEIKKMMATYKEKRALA
T1 sequence (Q641Z9 1-169): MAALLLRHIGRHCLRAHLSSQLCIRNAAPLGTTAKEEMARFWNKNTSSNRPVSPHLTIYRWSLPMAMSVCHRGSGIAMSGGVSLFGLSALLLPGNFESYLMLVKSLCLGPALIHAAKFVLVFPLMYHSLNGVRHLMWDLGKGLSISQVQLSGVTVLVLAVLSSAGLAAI
T1 sequence (Q6PCT8 57-159): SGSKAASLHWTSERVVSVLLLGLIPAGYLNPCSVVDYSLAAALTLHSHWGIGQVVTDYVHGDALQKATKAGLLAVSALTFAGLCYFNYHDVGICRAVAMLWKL
In short: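 Activity relative to DMSO (set as 1) after 15-min exposure of submitochondrial particles (1 mg/ml) to compound. RCC I is defined as rotenone-sensitive activity and RCC II is followed at 600 nm over 6 min.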

[3] = test system: RCC III; test: RCC III activity in submitochondrial particles; format: biochemical, rat; parameters: key to RCC III at 100XCmax: activity relative to DMSO-treated controls (control set as 1 = 100%); settings: 100XCmax
In short: (§1)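 Rat submitochondrial particles (1 mg/ml) were treated with test compounds for 15 min. RCC IV, like RCC III, was monitored at 550 nm every 10 s for 2 min, and RCC I/V at 340 nm each minute for 6 min. DMSO samples defined unit activity.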

[4] = test system: RCC IV; test: RCC IV activity in submitochondrial particles; format: biochemical, rat; parameters: key to RCC IV at 50XCmax / RCC IV at 100XCmax: activity relative to DMSO-treated controls (control set as 1 = 100%); settings: 50XCmax, in %
In short: as §1

[5] = test system: RCC V; test: RCC V activity in submitochondrial particles; format: biochemical, rat; for RCC V at 5XCmax: key: 0 indicates that the drug had no effects (negative)
In short: as §1

[6] = test system: isolated rat liver mitochondria; test: Mitochondrial inner membrane potential (MMP), Rhodamine 123; format: biochemical; settings: difference in signal between KI and DMSO treated samples at the end of experiments
Description: Fig. 3 KI effects on mitochondrial inner membrane potential (MMP). […] In a, c, data are means and standard derivations from three separate experiments. *p < 0.05 as compared to DMSO-treated samples at the end of experiments. In b, data are means of two independent experiments

[7] = test system: isolated rat liver mitochondria; settings: positive control alamethicin treated samples
[8] = test system: isolated rat liver mitochondria; test: Mitochondrial ROS production (CM-H2DCFDA); settings: DMSO treated samples set as 1
[9] = cited from earlier work
[10] = 1XCmax, DMSO treated samples set as 1
[11] = 2.5XCmax, DMSO treated samples set as 1
[12] = 5XCmax, DMSO treated samples set as 1
[13] = 10XCmax, DMSO treated samples set as 1
[14] = 20XCmax, DMSO treated samples set as 1
[15] = 30XCmax, DMSO treated samples set as 1
[16] = 50XCmax, DMSO treated samples set as 1
[17] = 100XCmax, DMSO treated samples set as 1
[18] = relative to DMSO treated samples

With `CC[C@H](Nc1ncnc2[nH]cnc12)c1nc2cccc(F)c2c(=O)n1-c1ccccc1` [Idelalisib] the “State 3 respiration driven by succinate at 1XCmax” value [1, 10] was 0, the “State 4 respiration driven by succinate at 1XCmax” value [1, 10] was 0 and the “State 3 respiration driven by succinate at 2.5XCmax” value [1, 11] was 0. For the same molecule, the “State 4 respiration driven by succinate at 2.5XCmax” value [1, 11] was 0, the “State 3 respiration driven by succinate at 5XCmax” value [1, 12] was 0 and the “State 4 respiration driven by succinate at 5XCmax” value [1, 12] was 0. For the same molecule, the “State 3 respiration driven by succinate at 10XCmax” value [1, 13] was 0, the “State 4 respiration driven by succinate at 10XCmax” value [1, 13] was 0 and the “State 3 respiration driven by succinate at 20XCmax” value [1, 14] was 0. For the same molecule, the “State 4 respiration driven by succinate at 20XCmax” value [1, 14] was 0, the “State 3 respiration driven by succinate at 30XCmax” value [1, 15] was 0 and the “State 4 respiration driven by succinate at 30XCmax” value [1, 15] was 0. For the same molecule, the “Glutamate/malate driven respiration State 3” value ([1]; 50-fold Cmax) was 0.76 ± 0.04, the “Glutamate/malate driven respiration State 4” value ([1]; 50-fold Cmax) was 1.00 ± 0.08 and the “Succinate-driven respiration State 3” value ([1]; 50-fold Cmax) was 0.83 ± 0.06. For the same molecule, the “Succinate-driven respiration State 4” value ([1]; 50-fold Cmax) was 0.97 ± 0.04, the “State 3 respiration driven by glutamate/malate at 50XCmax” value [1, 16] was 0.76±0.04 and the “State 3 respiration driven by succinate at 50XCmax” value [1, 16] was 0. The “State 4 respiration driven by succinate at 50XCmax” value [1, 16] was 0, the “Glutamate/malate driven respiration State 3” value ([1]; 100-fold Cmax) was 0.66 ± 0.03 and the “Glutamate/malate driven respiration State 4” value ([1]; 100-fold Cmax) was 1.13 ± 0.05. For the same molecule, the “Succinate-driven respiration State 3” value ([1]; 100-fold Cmax) was 0.65 ± 0.03, the “Succinate-driven respiration State 4” value ([1]; 100-fold Cmax) was 1.05 ± 0.01 and the “State 3 respiration driven by glutamate/malate at 100XCmax” value [1, 17] was 0.66±0.03. For the same molecule, the “State 3 respiration driven by succinate at 100XCmax” value [1, 17] was 0.65±0.03, the “State 4 respiration driven by succinate at 100XCmax” value [1, 17] was 0 and the “lowest concentration significantly affecting mitochondrial oxygen consumption” value ([1]; tested at 1 to 100-fold Cmax) was 50 fold Cmax. The “RCC II at 1.0XCmax” value ([2]; DMSO treated samples set as 1) was 0, the “RCC II at 2.5XCmax” value ([2]; DMSO treated samples set as 1) was 0 and the “RCC II at 5XCmax” value ([2]; DMSO treated samples set as 1) was 0. For the same molecule, the “RCC II at 10XCmax” value ([2]; DMSO treated samples set as 1) was 0, the “RCC II at 20XCmax” value ([2]; DMSO treated samples set as 1) was 0 and the “RCC II at 30XCmax” value ([2]; DMSO treated samples set as 1) was 0. The “RCC II at 50XCmax” value ([2]; DMSO treated samples set as 1) was 0, the “RCC II at 100XCmax” value ([2]; DMSO treated samples set as 1) was 0 and the “RCC III at 100XCmax” value [3] was 0. For the same molecule, the “RCC IV at 50XCmax” value ([4]; DMSO treated samples set as 1) was 0, the “RCC V at 5XCmax” value ([5]; DMSO treated samples set as 1) was 0 and the “RCC V at 50XCmax” value [5, 16] was 0. The “MMP measured by Rhodamine 123 at 1XCmax” value [6] was 0, the “MMP measured by Rhodamine 123 at 2.5XCmax” value [6] was 0 and the “MMP measured by Rhodamine 123 at 5XCmax” value [6] was 0. The “MMP measured by Rhodamine 123 at 10XCmax” value [6] was 0, the “MMP measured by Rhodamine 123 at 20XCmax” value [6] was 0 and the “MMP measured by Rhodamine 123 at 30XCmax” value [6] was 0. The “MMP measured by Rhodamine 123 at 50XCmax” value [6] was 0, the “MMP measured by Rhodamine 123 at 100XCmax” value [6] was 0 and the “Cytochrome c release 1XCmax” value [7] was 0. For the same molecule, the “Cytochrome c release 2.5XCmax” value [7] was 0, the “Cytochrome c release 5XCmax” value [7] was 0 and the “Cytochrome c release 10XCmax” value [7] was 0. The “Cytochrome c release 20XCmax” value [7] was 0, the “Cytochrome c release 30XCmax” value [7] was 0 and the “Cytochrome c release 50XCmax” value [7] was 0. The “Cytochrome c release 100XCmax” value [7] was 0, the “ROS measured by CM-H2DCFDA at 1XCmax” value [8] was 0 and the “ROS measured by CM-H2DCFDA at 2.5XCmax” value [8] was 0. The “ROS measured by CM-H2DCFDA at 5XCmax” value [8] was 0, the “ROS measured by CM-H2DCFDA at 10XCmax” value [8] was 0 and the “ROS measured by CM-H2DCFDA at 20XCmax” value [8] was 0. For the same molecule, the “ROS measured by CM-H2DCFDA at 30XCmax” value [8] was 0, the “ROS measured by CM-H2DCFDA at 50XCmax” value [8] was 0 and the “ROS measured by CM-H2DCFDA at 100XCmax” value [8] was 0.

For `CCCS(=O)(=O)Nc1ccc(F)c(C(=O)c2c[nH]c3ncc(-c4ccc(Cl)cc4)cc23)c1F` [Vemurafenib], the “State 3 respiration driven by glutamate/malate at 1XCmax” value [1, 10] was 0, the “State 3 respiration driven by succinate at 1XCmax” value [1, 10] was 0 and the “State 4 respiration driven by glutamate/malate at 1XCmax” value [1, 10] was 0. For the same molecule, the “State 4 respiration driven by succinate at 1XCmax” value [1, 10] was 0, the “State 3 respiration driven by glutamate/malate at 2.5XCmax” value [1, 11] was 0 and the “State 3 respiration driven by succinate at 2.5XCmax” value [1, 11] was 0. For the same molecule, the “State 4 respiration driven by glutamate/malate at 2.5XCmax” value [1, 11] was 0, the “State 4 respiration driven by succinate at 2.5XCmax” value [1, 11] was 0 and the “State 3 respiration driven by glutamate/malate at 5XCmax” value [1, 12] was 0. For the same molecule, the “State 3 respiration driven by succinate at 5XCmax” value [1, 12] was 0, the “State 4 respiration driven by glutamate/malate at 5XCmax” value [1, 12] was 0 and the “State 4 respiration driven by succinate at 5XCmax” value [1, 12] was 0. For the same molecule, the “State 3 respiration driven by glutamate/malate at 10XCmax” value [1, 13] was 0, the “State 3 respiration driven by succinate at 10XCmax” value [1, 13] was 0 and the “State 4 respiration driven by glutamate/malate at 10XCmax” value [1, 13] was 0. For the same molecule, the “State 4 respiration driven by succinate at 10XCmax” value [1, 13] was 0, the “State 3 respiration driven by glutamate/malate at 20XCmax” value [1, 14] was 0 and the “State 3 respiration driven by succinate at 20XCmax” value [1, 14] was 0. The “State 4 respiration driven by glutamate/malate at 20XCmax” value [1, 14] was 0, the “State 4 respiration driven by succinate at 20XCmax” value [1, 14] was 0 and the “State 3 respiration driven by glutamate/malate at 30XCmax” value [1, 15] was 0. The “State 3 respiration driven by succinate at 30XCmax” value [1, 15] was 0, the “State 4 respiration driven by glutamate/malate at 30XCmax” value [1, 15] was 0 and the “State 4 respiration driven by succinate at 30XCmax” value [1, 15] was 0. For the same molecule, the “State 3 respiration driven by glutamate/malate at 50XCmax” value [1, 16] was 0, the “State 3 respiration driven by succinate at 50XCmax” value [1, 16] was 0 and the “State 4 respiration driven by glutamate/malate at 50XCmax” value [1, 16] was 0. The “State 4 respiration driven by succinate at 50XCmax” value [1, 16] was 0, the “State 3 respiration driven by glutamate/malate at 100XCmax” value [1, 17] was 0 and the “State 3 respiration driven by succinate at 100XCmax” value [1, 17] was 0. For the same molecule, the “State 4 respiration driven by glutamate/malate at 100XCmax” value [1, 17] was 0, the “State 4 respiration driven by succinate at 100XCmax” value [1, 17] was 0 and the “RCC II at 1.0XCmax” value [2, 18] was 0. For the same molecule, the “RCC II at 2.5XCmax” value [2, 18] was 0, the “RCC II at 5XCmax” value [2, 18] was 0 and the “RCC II at 10XCmax” value [2, 18] was 0. For the same molecule, the “RCC II at 20XCmax” value [2, 18] was 0, the “RCC II at 30XCmax” value [2, 18] was 0 and the “RCC II at 50XCmax” value [2, 18] was 0. For the same molecule, the “RCC II at 100XCmax” value [2, 18] was 0, the “RCC IV at 50XCmax” value [4, 18] was 0 and the “RCC V at 5XCmax” value [5, 18] was 0. The “MMP measured by Rhodamine 123 at 1XCmax” value [6] was 0, the “MMP measured by Rhodamine 123 at 2.5XCmax” value [6] was 0 and the “MMP measured by Rhodamine 123 at 5XCmax” value [6] was 0. For the same molecule, the “MMP measured by Rhodamine 123 at 10XCmax” value [6] was 0, the “MMP measured by Rhodamine 123 at 20XCmax” value [6] was 0 and the “MMP measured by Rhodamine 123 at 30XCmax” value [6] was 0. For the same molecule, the “MMP measured by Rhodamine 123 at 50XCmax” value [6] was 0, the “MMP measured by Rhodamine 123 at 100XCmax” value [6] was 0 and the “Cytochrome c release 1XCmax” value [7] was 0. For the same molecule, the “Cytochrome c release 2.5XCmax” value [7] was 0, the “Cytochrome c release 5XCmax” value [7] was 0 and the “Cytochrome c release 10XCmax” value [7] was 0. For the same molecule, the “Cytochrome c release 20XCmax” value [7] was 0, the “Cytochrome c release 30XCmax” value [7] was 0 and the “Cytochrome c release 50XCmax” value [7] was 0. The “Cytochrome c release 100XCmax” value [7] was 0, the “DILI potential (based on labeling)” value ([9]; 1 = DILI positive, 0 = negative, ref product labeling) was 1 and the “Labeling for DILI” value ([9]; BBW: black box warning, W&P: Warnings and Precautions, ref product labeling) was “W&P: functional hepatic impairment”. The “labeling for DILI” value ([9]; W&P warnings and precautions, BBW black box warnings, ref FDA product labeling) was “W&P: hepatic impairment/ALT monitoring”, the “DILI potential (based on labeling)” value ([9]; ref FDA product labeling) was 1 and the “ROS measured by CM-H2DCFDA at 1XCmax” value [8] was 0. The “ROS measured by CM-H2DCFDA at 2.5XCmax” value [8] was 0, the “ROS measured by CM-H2DCFDA at 5XCmax” value [8] was 0 and the “ROS measured by CM-H2DCFDA at 10XCmax” value [8] was 0. The “ROS measured by CM-H2DCFDA at 20XCmax” value [8] was 0, the “ROS measured by CM-H2DCFDA at 30XCmax” value [8] was 0 and the “ROS measured by CM-H2DCFDA at 50XCmax” value [8] was 0. The “ROS measured by CM-H2DCFDA at 100XCmax” value [8] was 0.

Reference: article PMC5515969, “Effects of 31 FDA approved small-molecule kinase inhibitors on isolated rat liver mitochondria” (Archives of Toxicology, 2016)
